The nature of data set [1]: Fraction unbound in plasma.
The nature of data set [2]: Aqueous solubility of the compound. The settings on record: aqueous medium.
For a further data set, the system named is NIH3T3. Put plainly: Antiproliferative activity against mouse 3T3 cells expressing human CSF1R after 72 hrs by Celltiter assay. Type of data set: functional.
Data set [3] deals with Macrophage colony-stimulating factor 1 receptor (Homo sapiens) (UniProt P07333). Put plainly: Inhibition of CSF1R at 1 uM.
The target is the same in data set [4]. Put plainly: Inhibition of CSF1R at 0.1 uM.
For data set [5], the target named is Mast/stem cell growth factor receptor Kit (Homo sapiens) (UniProt P10721). The experiment in a line: Inhibition of c-Kit at 1 uM.
Data set [6] shares this target. Put plainly: Inhibition of c-Kit at 0.1 uM.
In data set [7] the target is T1, NUAK family SNF1-like kinase 1 (Homo sapiens) (UniProt O60285).
T1 sequence (whole entry): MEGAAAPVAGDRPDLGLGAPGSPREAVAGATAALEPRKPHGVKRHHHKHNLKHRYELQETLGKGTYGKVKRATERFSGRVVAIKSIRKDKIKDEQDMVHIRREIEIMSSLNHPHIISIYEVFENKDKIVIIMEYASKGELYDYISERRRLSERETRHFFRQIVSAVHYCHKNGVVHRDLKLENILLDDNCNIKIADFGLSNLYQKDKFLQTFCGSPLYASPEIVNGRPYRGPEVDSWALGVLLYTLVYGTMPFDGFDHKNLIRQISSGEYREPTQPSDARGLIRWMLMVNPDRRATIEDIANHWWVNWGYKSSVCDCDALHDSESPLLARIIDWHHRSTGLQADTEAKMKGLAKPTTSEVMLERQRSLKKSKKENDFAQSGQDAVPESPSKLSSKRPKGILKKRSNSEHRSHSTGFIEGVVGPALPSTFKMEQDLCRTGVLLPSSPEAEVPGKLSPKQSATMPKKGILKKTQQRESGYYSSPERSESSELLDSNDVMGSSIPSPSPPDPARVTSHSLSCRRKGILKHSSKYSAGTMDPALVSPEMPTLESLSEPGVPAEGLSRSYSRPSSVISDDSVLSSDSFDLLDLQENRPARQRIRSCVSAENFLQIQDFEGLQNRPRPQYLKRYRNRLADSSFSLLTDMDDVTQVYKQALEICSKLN
The experiment in a line: Inhibition of ARK5 at 1 uM.

Data set [8] addresses T1, NUAK family SNF1-like kinase 1 (Homo sapiens). The experiment in a line: Inhibition of ARK5 at 0.1 uM.
Data set [9] has as its target Ribosomal protein S6 kinase alpha-1 (Homo sapiens) (UniProt Q15418). Put plainly: Inhibition of Rsk1 at 1 uM.
Data set [10] shares this target. Put plainly: Inhibition of Rsk1 at 0.1 uM.
Data set [11] deals with Maternal embryonic leucine zipper kinase (Homo sapiens) (UniProt Q14680). The experiment in a line: Inhibition of MELK at 1 uM.
The target is the same in data set [12]. The experiment in a line: Inhibition of MELK at 0.1 uM.
A short description of data set [13]: Clearance in mouse at 3 mg/kg, iv and 10 mg/kg, po. The format is ADME, organism-based. Conditions: in vivo.
A short description of data set [14]: Half life in mouse at 3 mg/kg, iv and 10 mg/kg, po. The format is ADME, organism-based. Conditions: in vivo.
A short description of data set [15]: Volume of distribution at steady state in mouse at 3 mg/kg, iv and 10 mg/kg, po. The settings on record: in vivo, read-out: Vdss. Type of data set: ADME, organism-based.
A short description of data set [16]: Bioavailability in mouse at 3 mg/kg, iv and 10 mg/kg, po. Type of data set: ADME, organism-based. The settings on record: in vivo.
The nature of data set [17]: Clearance in rat at 3 mg/kg, iv and 10 mg/kg, po. The format is ADME, organism-based. Conditions: in vivo.
Data set [18] in a line: Half life in rat at 3 mg/kg, iv and 10 mg/kg, po. The format is ADME, organism-based. The settings on record: in vivo.
Data set [19] can be described thus: Volume of distribution at steady state in rat at 3 mg/kg, iv and 10 mg/kg, po. The format is ADME, organism-based. The settings on record: in vivo, read-out: Vdss.
A short description of data set [20]: Bioavailability in rat at 3 mg/kg, iv and 10 mg/kg, po. Type of data set: ADME, organism-based. Conditions: in vivo.
Data set [21] can be described thus: Clearance in dog at 3 mg/kg, iv and 5 mg/kg, po. Type of data set: ADME, organism-based, Canis lupus familiaris. The settings on record: in vivo.
Data set [22] is described as follows: Half life in dog at 3 mg/kg, iv and 5 mg/kg, po. The format is ADME, organism-based, Canis lupus familiaris. Conditions: in vivo.
Data set [23] in a line: Volume of distribution at steady state in dog at 3 mg/kg, iv and 5 mg/kg, po. Conditions: in vivo, read-out: Vdss. Type of data set: ADME, organism-based, Canis lupus familiaris.
A short description of data set [24]: Bioavailability in dog at 3 mg/kg, iv and 5 mg/kg, po. The format is ADME, organism-based, Canis lupus familiaris. The settings on record: in vivo.

In brackets after ≈: the same amount, converted by molar mass. Several values for one entry are separate records, joined by “and”; a condition that tells them apart may be missing. Identical values can stand only once.

For orientation: fraction unbound means the share of the substance not bound to proteins or other matrix. A low value points to little free substance. As a reminder, the solubility is the concentration that dissolves in the medium under given conditions. The low end stands for a poorly soluble substance, the high end for a readily soluble substance. What is called inhibition is the change of the read-out against control, counted positive when it falls. High values mean a response far below the control, low ones a response near the control. A word on the half-life: it is how long it takes for the measured level to halve. Higher therefore signals slow decline. A word on the bioavailability: it is the share of a dose that reaches the circulation, judged against a reference dose that is usually intravenous. Read a high bioavailability as good availability.

Mast/stem cell growth factor receptor Kit (Homo sapiens), sequence (P10721 whole entry): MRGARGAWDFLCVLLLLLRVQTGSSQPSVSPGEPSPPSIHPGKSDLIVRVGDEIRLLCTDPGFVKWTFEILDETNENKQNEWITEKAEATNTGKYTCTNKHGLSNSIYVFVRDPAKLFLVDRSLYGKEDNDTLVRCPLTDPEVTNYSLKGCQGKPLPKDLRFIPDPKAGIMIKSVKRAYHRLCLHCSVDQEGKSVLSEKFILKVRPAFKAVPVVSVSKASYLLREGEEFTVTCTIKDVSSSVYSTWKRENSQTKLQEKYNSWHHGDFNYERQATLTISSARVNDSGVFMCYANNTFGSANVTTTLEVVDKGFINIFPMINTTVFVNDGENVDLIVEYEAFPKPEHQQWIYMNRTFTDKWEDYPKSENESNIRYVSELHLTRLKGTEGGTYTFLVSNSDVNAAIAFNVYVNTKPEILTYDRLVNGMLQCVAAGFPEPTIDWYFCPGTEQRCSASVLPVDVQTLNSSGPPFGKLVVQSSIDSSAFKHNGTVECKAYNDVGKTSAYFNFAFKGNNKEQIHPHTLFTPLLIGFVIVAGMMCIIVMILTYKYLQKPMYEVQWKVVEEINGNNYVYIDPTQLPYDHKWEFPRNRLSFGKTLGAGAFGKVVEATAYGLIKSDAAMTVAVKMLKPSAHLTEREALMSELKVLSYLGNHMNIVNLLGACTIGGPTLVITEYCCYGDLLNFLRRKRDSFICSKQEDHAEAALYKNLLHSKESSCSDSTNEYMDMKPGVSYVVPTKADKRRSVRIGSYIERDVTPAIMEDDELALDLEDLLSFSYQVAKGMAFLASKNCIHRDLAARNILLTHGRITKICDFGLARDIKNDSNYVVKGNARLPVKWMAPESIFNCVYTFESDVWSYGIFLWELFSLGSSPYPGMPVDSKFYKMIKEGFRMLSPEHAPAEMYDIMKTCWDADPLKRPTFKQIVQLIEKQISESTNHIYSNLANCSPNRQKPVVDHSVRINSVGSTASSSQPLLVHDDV
Macrophage colony-stimulating factor 1 receptor (Homo sapiens), sequence (P07333 whole entry): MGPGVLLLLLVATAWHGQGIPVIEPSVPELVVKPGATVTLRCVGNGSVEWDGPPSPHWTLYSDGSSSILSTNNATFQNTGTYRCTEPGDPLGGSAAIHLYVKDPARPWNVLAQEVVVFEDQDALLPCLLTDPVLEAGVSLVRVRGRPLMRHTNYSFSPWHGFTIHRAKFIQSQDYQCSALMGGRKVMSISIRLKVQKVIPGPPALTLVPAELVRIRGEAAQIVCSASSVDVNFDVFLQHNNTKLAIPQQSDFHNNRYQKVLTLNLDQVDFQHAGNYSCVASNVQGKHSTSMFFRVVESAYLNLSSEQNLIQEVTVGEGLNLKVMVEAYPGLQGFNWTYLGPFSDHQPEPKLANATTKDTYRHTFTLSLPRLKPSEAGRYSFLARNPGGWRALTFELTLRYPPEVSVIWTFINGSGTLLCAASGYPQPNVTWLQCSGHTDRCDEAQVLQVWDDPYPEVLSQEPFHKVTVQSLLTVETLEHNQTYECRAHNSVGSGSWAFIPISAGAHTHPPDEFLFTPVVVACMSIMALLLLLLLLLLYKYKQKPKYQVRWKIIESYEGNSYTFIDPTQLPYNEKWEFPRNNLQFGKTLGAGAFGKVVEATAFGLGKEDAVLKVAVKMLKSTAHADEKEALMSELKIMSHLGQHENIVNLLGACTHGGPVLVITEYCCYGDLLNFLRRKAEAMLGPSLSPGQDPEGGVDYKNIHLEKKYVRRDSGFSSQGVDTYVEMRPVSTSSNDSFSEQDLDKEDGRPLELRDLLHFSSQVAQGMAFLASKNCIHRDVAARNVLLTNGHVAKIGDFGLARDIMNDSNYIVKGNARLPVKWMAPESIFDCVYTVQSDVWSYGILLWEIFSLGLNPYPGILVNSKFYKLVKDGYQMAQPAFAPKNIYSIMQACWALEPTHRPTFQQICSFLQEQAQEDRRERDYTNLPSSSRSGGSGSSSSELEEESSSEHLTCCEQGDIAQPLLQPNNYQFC
Ribosomal protein S6 kinase alpha-1 (Homo sapiens), sequence (Q15418 whole entry): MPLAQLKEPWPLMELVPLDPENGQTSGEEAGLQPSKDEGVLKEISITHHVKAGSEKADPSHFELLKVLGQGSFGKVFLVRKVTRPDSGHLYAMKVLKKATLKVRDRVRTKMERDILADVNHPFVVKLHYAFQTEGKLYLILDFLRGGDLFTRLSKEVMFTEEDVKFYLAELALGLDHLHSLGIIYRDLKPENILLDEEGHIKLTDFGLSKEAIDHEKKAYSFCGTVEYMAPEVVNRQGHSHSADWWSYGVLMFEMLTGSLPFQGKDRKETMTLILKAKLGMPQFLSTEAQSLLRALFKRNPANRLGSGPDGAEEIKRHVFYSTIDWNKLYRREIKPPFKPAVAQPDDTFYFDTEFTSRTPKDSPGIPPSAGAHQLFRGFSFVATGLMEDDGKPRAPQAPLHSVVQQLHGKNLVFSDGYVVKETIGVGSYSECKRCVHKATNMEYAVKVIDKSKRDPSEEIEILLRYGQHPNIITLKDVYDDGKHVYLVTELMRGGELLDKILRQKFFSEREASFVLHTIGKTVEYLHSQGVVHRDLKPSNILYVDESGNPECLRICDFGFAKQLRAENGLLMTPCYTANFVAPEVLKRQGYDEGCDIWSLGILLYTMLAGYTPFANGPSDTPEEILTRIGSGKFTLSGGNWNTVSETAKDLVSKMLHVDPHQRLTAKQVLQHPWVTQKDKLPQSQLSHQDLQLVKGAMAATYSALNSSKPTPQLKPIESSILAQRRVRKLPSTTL
Maternal embryonic leucine zipper kinase (Homo sapiens), sequence (Q14680 whole entry, looked up): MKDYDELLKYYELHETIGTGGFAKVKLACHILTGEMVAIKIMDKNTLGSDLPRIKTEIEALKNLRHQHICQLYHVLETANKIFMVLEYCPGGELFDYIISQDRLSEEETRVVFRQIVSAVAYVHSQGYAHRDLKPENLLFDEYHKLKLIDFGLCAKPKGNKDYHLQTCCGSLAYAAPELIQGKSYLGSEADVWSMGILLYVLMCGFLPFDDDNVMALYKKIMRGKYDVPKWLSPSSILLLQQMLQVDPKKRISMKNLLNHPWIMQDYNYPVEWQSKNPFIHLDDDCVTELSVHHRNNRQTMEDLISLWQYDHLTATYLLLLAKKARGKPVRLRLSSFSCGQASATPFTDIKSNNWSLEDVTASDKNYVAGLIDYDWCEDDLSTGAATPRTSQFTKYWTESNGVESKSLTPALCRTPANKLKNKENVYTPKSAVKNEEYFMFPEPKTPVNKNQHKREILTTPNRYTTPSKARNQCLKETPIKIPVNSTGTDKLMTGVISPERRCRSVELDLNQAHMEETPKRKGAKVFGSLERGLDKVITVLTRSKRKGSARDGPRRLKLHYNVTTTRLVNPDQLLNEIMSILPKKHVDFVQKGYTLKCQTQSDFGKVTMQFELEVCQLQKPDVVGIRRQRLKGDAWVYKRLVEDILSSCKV

`COc1cc2nnc(C(N)=O)c(Nc3ccc(F)cc3F)c2cc1N1CCN(C)CC1` displayed a fraction unbound in [1] of 0.096. This molecule yielded a solubility in data set [2] of 290 µM (≈ 124 µg/mL).

With `CCOc1cc2nnc(C(N)=O)c(Nc3cc(C)ccc3F)c2cc1N1CCN(C)CC1`, the Activity in the data set on NIH3T3 was 0.04 µM and 0.09 µM. The molecule further yielded a fraction unbound in data set [1] of 0.11. Moreover, the solubility in [2] worked out at 120 µM (≈ 52.6 µg/mL).

In [2], `CCOc1cc2nnc(C(N)=O)c(Nc3cccc(Cl)c3F)c2cc1N1CCN(C)CC1` registered a solubility of 18 µM (≈ 8.26 µg/mL).

Take `COc1cc2nnc(C(N)=O)c(Nc3ccc(C)cc3F)c2cc1OC`: in the data set with NIH3T3, the Activity is 0.11 µM and 0.25 µM. In addition, in data set [2], the solubility is < 1 µM.

`COc1cc2nnc(C(N)=O)c(Nc3cc(C)ccc3F)c2cc1N1CCN(C)CC1` yielded an Activity with NIH3T3 of 0.057 µM. The same molecule displayed a solubility in data set [2] of 22 µM (≈ 9.34 µg/mL).

In turn, `CCOc1cc2nnc(C(N)=O)c(Nc3ccc(F)cc3F)c2cc1N1CCN(C)CC1` registered a free fraction (fraction unbound) in data set [1] of 0.039. The inhibition in data set [3] was 95%; in data set [4], 100%; in data set [5] it was 90%; in data set [6], 35%; in [7] it was 78%; in data set [8], 23%. Further, the inhibition turned out to be 44% in [9], 7% in [10], 41% in data set [11] and 15% in data set [12].

On to `COc1cc2nnc(C(N)=O)c(Nc3cc(C)ccc3F)c2cc1OC`, for which the Activity in the data set on NIH3T3 was 0.2 µM and 0.21 µM. Moreover, the solubility in data set [2] was < 1 µM.

On to `CCOc1cc2nnc(C(N)=O)c(Nc3ccc(C)cc3F)c2cc1N1CCN(C)CC1`, for which the fraction unbound in data set [1] came out at 0.016. The solubility in data set [2] was found to be 27 µM (≈ 11.8 µg/mL). Further, the clearance in data set [13] is 12 mL/min/kg; in [17], 10 mL/min/kg; in data set [21] it was 2 mL/min/kg. Also, the figures for the half-life in [14], in data set [18] and in data set [22] were 0.9 h, 9.7 h and 12.6 h, respectively. For the same molecule, the results for the Vd in [15], in data set [19] and in data set [23] were 0.6 L/kg, 2.8 L/kg and 1.8 L/kg, respectively. For the same molecule, the bioavailability in data set [16] is 82%; in [20], 90%; in [24] it was 78%.

In turn, `COc1cc2nnc(C(N)=O)c(Nc3ccc(C)cc3F)c2cc1N1CCN(C)CC1` displayed an Activity in the data set on NIH3T3 of 0.025 µM.

For `COc1cc2nnc(C(N)=O)c(Nc3cccc(Cl)c3Cl)c2cc1OC`, in the data set on NIH3T3, the Activity was 0.05 µM and 0.09 µM. Moreover, the solubility in [2] was < 1 µM.

Turning to `COc1cc2nnc(C(N)=O)c(Nc3cccc(Cl)c3F)c2cc1OC`, the Activity in the data set with NIH3T3 is 0.08 µM and 0.12 µM. In addition, the solubility in data set [2] was < 1 µM.

In the case of `CCOc1cc2nnc(C(N)=O)c(Nc3cccc(Cl)c3Cl)c2cc1N1CCN(C)CC1`, in data set [1], the fraction unbound is < 0.017. In data set [2], this molecule showed a solubility of 10 µM (≈ 4.75 µg/mL).

As for `COc1cc2nnc(C(N)=O)c(Nc3cccc(Cl)c3F)c2cc1N1CCN(C)CC1`, in the data set with NIH3T3, the Activity came out at 0.021 µM. This molecule gave a solubility in [2] of 110 µM (≈ 48.9 µg/mL).

As to `COc1cc2nnc(C(N)=O)c(Nc3ccc(F)cc3F)c2cc1OC`, the Activity in the data set on NIH3T3 is 0.16 µM and 0.4 µM. In data set [2], this molecule registered a solubility of 3 µM (≈ 1.08 µg/mL).
